The results in this text go back to paper PMC10544575, “Inhibitory mechanism of vortioxetine on CYP450 enzymes in human and rat liver microsomes” (Frontiers in Pharmacology, 2023).

Each structure is given as a SMILES string.

Data set [1] deals with CYP3A4 (Homo sapiens, UniProt P08684). Nature of the data set: Reversible inhibition kinetics (Lineweaver-Burk), CYP3A4 in HLMs. The class given is in vitro ADME. Also noted: 0.20 mg/mL HLMs; from tissue; host or cells: human liver microsomes. Particulars: midazolam. The protocol:
(§1) The components of the incubation system were as follows: 0.20 mg/mL HLMs or 0.20 mg/mL RLMs, 0.1 M Tris-HCl, vortioxetine, and the probe substrates of each enzyme. In the study of Km’s (Michaelis–Menten constant) experiment, midazolam (1, 2, 5, 10, 20, 50 and 100 μM in HLMs and RLMs) corresponded to CYP3A4/3A; bupropion (10, 20, 50, 100, 200, 500, 1,000 and 2000 μM in HLMs; 1, 2, 5, 10, 20, 50, 100 and 200 μM in RLMs) corresponded to CYP2B6/2B; amodiaquine (5, 10, 20, 50, 100 and 200 μM in HLMs; 10, 20, 50, 100, 200, 500 μM in RLMs) corresponded to CYP2C8/CYP2C-1; losartan (1, 2, 5, 10, 20, 50, 100, 200 μM in HLMs; 10, 20, 50, 100, 200, 500 and 1,000 μM in RLMs) corresponded to CYP2C9/CYP2C-2; mephenytoin (20, 50, 100, 200, 500 and 1,000 μM in HLMs; 5, 10, 20, 50, 100, 200, 500 and 1,000 μM in RLMs) corresponded to CYP2C19/CYP2C-3; and dextromethorphan (1, 2, 5, 10, 20, 50 and 100 μM in HLMs and RLMs) corresponded to CYP2D6/CYP2D. After 5.0 min of preincubation in the shaking water bath, the reaction was started with the addition of 1.0 mM NADPH. The incubated temperature at 37°C for 30 min. After the incubation, the enzyme reaction was stopped by cooling at −80°C, and 200 μL of acetonitrile and 20 μL of internal standard diazepam (200 ng/mL) were added for protein precipitation. The solution was fully vortexed and centrifuged at 13,000 × rpm for 10 min, and the supernatant was collected for data analysis by UPLC-MS/MS.
The inhibitory mechanism of the inhibitor on the enzyme was generally used by different concentrations of the inhibitor against different concentrations of the probe substrate. The concentrations of the inhibitor and the concentrations of probe substrates in the experiment were estimated based on IC50 and Km values, respectively.
In HLMs, the concentrations of the substrates midazolam, bupropion, amodiaquine, losartan, mephenytoin, and dextromethorphan were 1, 2, 4, 8 μM; 10, 20, 40, 80 μM; 0.8, 1.5, 3, 6 μM; 2, 4, 8, 16 μM; 20, 45, 90, 180 μM; 2.5, 5, 10, 20 μM, respectively. Corresponding to the concentration of vortioxetine were 2, 4, 9, 18 μM; 2, 4, 8, 16 μM; 4, 8, 15, 30 μM; 5, 10, 25, 50 μM; 0.6, 1.2, 2.5, 5 μM; 4.5, 9, 18, 36 μM, respectively.
All experiments results were detected by UPLC-MS/MS, which equipped with a Waters Acquity UPLC system (Milford, MA, United States) and a Waters Xevo TQ-S triple quadrupole tandem mass spectrometer with an electrospray ionization source (Milford, MA, United States). The chromatographic separation was performed on a Waters ACQUITY UPLC BEH C18 column (2.1 × 50 mm, 1.7 μm, Waters Corp.) at 40°C. […]
(§2) IC50 values and enzyme kinetic parameters were calculated by Graphpad Prism 6.0 (GraphPad software Inc., CA, United States). […] Data for each experiment were expressed as mean ± SD (n = 3).

Data set [2] has as its target T1, CYP2C8 (Homo sapiens, UniProt P10632).
T1 sequence (P10632 1-490): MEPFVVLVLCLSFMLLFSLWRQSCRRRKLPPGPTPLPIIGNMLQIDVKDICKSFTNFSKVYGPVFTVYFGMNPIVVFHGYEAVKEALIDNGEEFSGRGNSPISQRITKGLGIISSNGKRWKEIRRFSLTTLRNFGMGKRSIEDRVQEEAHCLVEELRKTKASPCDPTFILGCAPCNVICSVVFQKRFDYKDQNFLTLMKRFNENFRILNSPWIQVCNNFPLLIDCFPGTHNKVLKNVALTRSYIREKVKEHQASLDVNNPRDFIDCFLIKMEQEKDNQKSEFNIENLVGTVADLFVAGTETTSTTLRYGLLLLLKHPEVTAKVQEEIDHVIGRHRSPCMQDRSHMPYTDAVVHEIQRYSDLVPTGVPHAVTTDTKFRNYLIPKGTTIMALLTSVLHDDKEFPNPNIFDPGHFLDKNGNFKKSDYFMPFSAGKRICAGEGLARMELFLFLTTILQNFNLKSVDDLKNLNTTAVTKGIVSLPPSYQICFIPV
The data set can be described thus: IC50-shift experiment, CYP2C8 in HLMs. Also noted: 0.20 mg/mL HLMs or 0.20 mg/mL RLMs; from tissue; host or cells: human liver microsomes. The class given is in vitro ADME. Particulars: for IC50: amodiaquine 3 μM. As to the method: as §1, with “The solution was fully vortexed and centrifuged at 13,000 × rpm for 10 min, and the supernatant was collected for data analysis by UPLC-MS/MS.” left out
IC50-shift was used to investigate whether the drug produced time-dependent inhibition (TDI) of the enzyme. […] During the experiment, the individual substrates midazolam (4 μM), bupropion (40 μM), amodiaquine (3 μM), losartan (8 μM), mephenytoin (90 μM), and dextromethorphan (10 μM) were determined with vortioxetine IC50-shift in HLMs. […]
All experiments results were detected by UPLC-MS/MS, which equipped with a Waters Acquity UPLC system (Milford, MA, United States) and a Waters Xevo TQ-S triple quadrupole tandem mass spectrometer with an electrospray ionization source (Milford, MA, United States). […]
as §2

Sequence of CYP3A4 (P08684 whole entry): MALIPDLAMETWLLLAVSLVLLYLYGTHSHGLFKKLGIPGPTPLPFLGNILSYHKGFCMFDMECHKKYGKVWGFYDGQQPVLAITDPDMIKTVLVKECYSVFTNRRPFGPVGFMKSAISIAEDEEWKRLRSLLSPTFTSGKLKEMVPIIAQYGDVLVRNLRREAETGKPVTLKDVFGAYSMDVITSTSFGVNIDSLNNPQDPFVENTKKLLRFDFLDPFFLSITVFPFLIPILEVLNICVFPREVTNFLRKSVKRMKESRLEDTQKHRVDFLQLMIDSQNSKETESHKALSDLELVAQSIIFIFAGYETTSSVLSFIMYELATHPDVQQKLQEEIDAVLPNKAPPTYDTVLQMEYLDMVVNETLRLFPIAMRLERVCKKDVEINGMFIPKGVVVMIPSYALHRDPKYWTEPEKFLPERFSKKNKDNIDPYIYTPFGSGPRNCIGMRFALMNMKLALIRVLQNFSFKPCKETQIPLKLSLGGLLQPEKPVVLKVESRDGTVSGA

A word on the Ki: it is a dissociation constant, usually derived from enzyme kinetics or from competition with a known ligand. As a reminder, the IC50 is the midpoint of a concentration-inhibition curve. In data set [1], `Cc1ccc(Sc2ccccc2N2CCNCC2)c(C)c1` [vortioxetine] yielded a Ki of 7.26 µM and a α of 0.94. The Inhibition type result in data set [1] (Lineweaver-Burk plot) is listed as “noncompetitive inhibition”. This compound also gave a αKi in data set [1] (secondary plot of y-intercepts) of 6.82 µM. Further, the IC50 in data set [2] (30 min preincubation with 1.0 mM NADPH) stood at 18.7 µM. Besides, in data set [2] (30 min preincubation without NADPH), the half-inhibitory concentration (IC50) was found to be 18.2 µM. Also, in data set [2] (human, human liver microsomes, probe amodiaquine (3 μM), ratio IC50 (−) NADPH to IC50 (+) NADPH, read-out: IC50 fold shift), the IC50 shift at 30 min is 0.97.
